Target: T1, human kinase Mps-1 (Homo sapiens, UniProt P33981)
T1 construct: N-terminally GST-tagged human full length recombinant Mps-1 kinase; GST (N); purchased Invitrogen, Karslruhe, Germany PV4071
T1 sequence (P33981 1-857): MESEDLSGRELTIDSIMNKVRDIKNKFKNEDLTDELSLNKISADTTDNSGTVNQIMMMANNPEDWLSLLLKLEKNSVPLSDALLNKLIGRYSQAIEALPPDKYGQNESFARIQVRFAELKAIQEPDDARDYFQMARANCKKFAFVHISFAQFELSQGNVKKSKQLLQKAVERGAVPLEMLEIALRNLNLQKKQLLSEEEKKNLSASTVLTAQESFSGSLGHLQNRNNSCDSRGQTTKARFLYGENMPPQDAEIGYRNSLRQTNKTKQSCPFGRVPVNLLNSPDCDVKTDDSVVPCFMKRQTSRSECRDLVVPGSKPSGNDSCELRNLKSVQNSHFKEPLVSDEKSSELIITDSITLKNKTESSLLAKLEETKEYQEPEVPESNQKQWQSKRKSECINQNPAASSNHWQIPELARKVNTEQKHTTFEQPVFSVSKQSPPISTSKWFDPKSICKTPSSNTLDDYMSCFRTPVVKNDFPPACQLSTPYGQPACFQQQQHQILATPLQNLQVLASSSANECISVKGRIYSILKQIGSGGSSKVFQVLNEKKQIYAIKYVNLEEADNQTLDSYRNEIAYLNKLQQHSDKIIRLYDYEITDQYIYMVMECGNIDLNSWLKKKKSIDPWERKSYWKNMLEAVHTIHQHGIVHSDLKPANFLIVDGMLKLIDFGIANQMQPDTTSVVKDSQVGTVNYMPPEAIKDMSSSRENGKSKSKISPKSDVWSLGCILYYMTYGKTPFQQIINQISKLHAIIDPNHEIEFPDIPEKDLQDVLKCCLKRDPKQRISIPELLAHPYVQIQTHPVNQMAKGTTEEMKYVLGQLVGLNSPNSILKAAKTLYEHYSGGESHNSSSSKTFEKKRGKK
Experiment: Mps-1 kinase assay (TR-FRET)
Type: biochemical
Conditions: N-terminally GST-tagged human full length recombinant Mps-1; 10 μM ATP; 1 μM peptide substrate; 15 min pre-incubation; 60 min at 22° C.
How it was run: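 N-terminally GST-tagged full-length recombinant human Mps-1, about 1 nM final, phosphorylates a biotinylated peptide. Product detected by TR-FRET from Eu-anti-phospho-Ser/Thr antibody to streptavidin-XLent after 1 h at 22° C.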

IC50 [nM] | SMILES
7.2 | CC(C)CNc1nc(-c2ccc(-c3ccccc3)cc2)cn2c(-c3ccc(C(=O)NC4CC4)cc3)cnc12 [Example 1-49, 4-{6-(biphenyl-4-yl)-8-[(2-methylpropyl)amino]imidazo[1,2-a]pyrazin-3-yl}-N-cyclopropyl-benzamide]
3.3 | Cc1cc(-c2cnc3c(NCC4CCOCC4)nc(-c4ccc(F)cc4)cn23)ccc1C(=O)NC1CC1 [Example 10-14, N-cyclopropyl-4-{6-(4-fluorophenyl)-8-[(tetra-hydro-2H-pyran-4-ylmethyl)amino]imidazo [1,2-a]pyrazin-3-yl}-2-methylbenzamide]
22.6 | CN(C)c1ccc(-c2cn3c(-c4ccc(C(=O)NC5CC5)c(Cl)c4)cnc3c(NCCC(F)(F)F)n2)cc1 [Example 1-96, 2-chloro-N-cyclopropyl-4-{6-[4-(dimethylamino)phenyl]-8-[(3,3,3-trifluoropropyl)amino]imidazo[1,2-a]pyrazin-3-yl}benzamide]
1.1 | O=C(NC1CC1)c1ccc(-c2cnc3c(NCCCCO)nc(-c4ccccc4)cn23)cc1 [Example 2-78, N-cyclopropyl-4-{8-[(4-hydroxybutyl)amino]-6-phenylimidazo[1,2-a]pyrazin-3-yl}benzamide]
32.3 | Cc1cc(C)cc(-c2cn3c(-c4ccc(C(=O)NC5CC5)cc4)cnc3c(NCC(C)C)n2)c1 [Example 1-39, N-cyclopropyl-4-{6-(3,5-dimethylphenyl)-8-[(2-methylpropyl)amino]imidazo[1,2-a]pyrazin-3-yl}benzamide]
6.2 | CC(C)CNc1nc(-c2ccc(C(=O)NC(C)C)c(F)c2)cn2c(-c3ccc(C(=O)NC4CC4)cc3)cnc12 [Example 1-86, 4-{3-[4-(cyclopropyl-carbamoyl)phenyl]-8-[(2-methylpropyl)amino]imidazo[1,2-a]pyrazin-6-yl}-2-fluoro-N-(propan-2-yl)benzamide]
2 | CC(C)CNc1nc(-c2ccc([N+](=O)[O-])cc2)cn2c(-c3ccc(C(=O)NC4CC4)cc3)cnc12 [Example 1-61, N-cyclopropyl-4-{8-[(2-methylpropyl)amino]-6-(4-nitrophenyl)imidazo [1,2-a]pyrazin-3-yl} benzamide]
2.9 | O=C(NC1CC1)c1ccc(-c2cnc3c(NCc4ccc(F)cc4)nc(-c4ccccc4)cn23)cc1 [Example 2-14, N-cyclopropyl-4-{8-[(4-fluorobenzyl)amino]-6-phenylimidazo[1,2-a]pyrazin-3-yl}benzamide]
2.5 | Cn1nccc1CNc1nc(-c2ccc(F)cc2)cn2c(-c3ccc(C(=O)NC4CC4)c(F)c3)cnc12 [Example 1-119, N-cyclopropyl-2-fluoro-4-[6-(4-fluorophenyl)-8-{[(1-methyl-1H-pyrazol-5-yl)methyl]amino}imidazo[1,2-a]pyrazin-3-yl]benzamide]
2.6 | CC(C)CNc1nc(-c2cccc3[nH]ccc23)cn2c(-c3ccc(C(=O)NC4CC4)cc3)cnc12 [Example 1-22, N-cyclopropyl-4-{6-(1H-indol-4-yl)-8-[(2-methyl-propyl)amino]imidazo [1,2-a]pyrazin-3-yl} benzamide]
6.7 | CC(C)CNc1nc(-c2cccc(S(=O)(=O)N3CCOCC3)c2)cn2c(-c3ccc(C(=O)NC4CC4)cc3)cnc12 [Example 1-130, N-cyclopropyl-4-{8-(isobutylamino)-6-[3-(morpholin-4-ylsulfonyl)phenyl]imidazo[1,2-a]pyrazin-3-yl}benzamide]
35.7 | CN(C)CCNc1nc(-c2ccccc2)cn2c(-c3ccc(C(=O)NC4CC4)cc3)cnc12 [Example 2-34, N-cyclopropyl-4-(8-{[2-(dimethylamino)ethyl]amino}-6-phenylimidazo[1,2-a]pyrazin-3-yl)benzamide]
3.5 | O=C(NC1CC1)c1ccc(-c2cnc3c(NCCC(F)(F)F)nc(-c4ccccc4CO)cn23)cc1F [Example 1-114, N-cyclopropyl-2-fluoro-4-{6-[2-(hydroxymethyl)phenyl]-8-[(3,3,3-tri-fluoropropyl)amino]imidazo[1,2-a]pyrazin-3-yl}benzamide]
3 | CC(C)CNc1nc(-c2ccccc2CO)cn2c(-c3ccc(C(=O)NC4CC4)c(F)c3)cnc12 [Example 1-111, N-cyclopropyl-2-fluoro-4-{6-[2-(hydroxymethyl)phenyl]-8-[(2-methyl-propyl)amino]imidazo [1,2-a]pyrazin-3-yl} benzamide]
6.2 | O=C(NC1CC1)c1ccc(-c2cnc3c(NCCOCCO)nc(-c4ccccc4)cn23)cc1 [Example 2-80, N-cyclopropyl-4-(8-{[2-(2-hydroxyethoxy)ethyl]amino}-6-phenylimidazo[1,2-a]pyrazin-3-yl)benzamide]
5.1 | O=C(NC1CC1)c1ccc(-c2cnc3c(NCCC(F)(F)F)nc(-c4ccccc4CO)cn23)cc1Cl [Example 1-97, 2-chloro-N-cyclopropyl-4-{6-[2-(hydroxymethyl)phenyl]-8-[(3,3,3-trifluoropropyl)amino]imidazo[1,2-a]pyrazin-3-yl}benzamide]
7.7 | CC(C)CNc1nc(-c2ccc(F)c(F)c2)cn2c(-c3ccc(C(=O)NC4CC4)cc3)cnc12 [Example 1-63, N-cyclopropyl-4-{6-(3,4-difluorophenyl)-8-[(2-methylpropyl)amino]imidazo[1,2-a]pyrazin-3-yl}benzamide]
35.9 | COc1ccc(Cl)cc1-c1cn2c(-c3ccc(C(=O)NC4CC4)cc3)cnc2c(NCC(C)C)n1 [Example 1-71, 4-{6-(5-chloro-2-methoxy-phenyl)-8-[(2-methyl-propyl)amino]imidazo [1,2-a]pyrazin-3-yl}-N-cyclopropylbenzamide]
31.6 | O=C(NC1CC1)c1ccc(-c2cnc3c(NCCN4CCCCC4)nc(-c4ccccc4)cn23)cc1 [Example 2-11, N-cyclopropyl-4-(6-phenyl-8-{[2-(piperidin-1-yl)ethyl]amino}imidazo[1,2-a]pyrazin-3-yl)benzamide]
28.4 | O=C(NC1CC1)c1ccc(-c2cnc3c(NCCCN4CCCC4)nc(-c4ccccc4)cn23)cc1 [Example 2-36, N-cyclopropyl-4-(6-phenyl-8-{[3-(pyrrolidin-1-yl)propyl]amino}imidazo[1,2-a]pyrazin-3-yl)benzamide]
5.8 | CCOc1cccc(-c2cn3c(-c4ccc(C(=O)NC5CC5)cc4)cnc3c(NCC(C)C)n2)c1 [Example 1-44, N-cyclopropyl-4-{6-(3-ethoxyphenyl)-8-[(2-methylpropyl)amino]imidazo[1,2-a]pyrazin-3-yl}benzamide]
1.4 | CNC(=O)c1cccc(-c2cn3c(-c4ccc(C(=O)NC5CC5)cc4)cnc3c(NCC(C)C)n2)c1 [Example 1-33, 3-{3-[4-(cyclopropyl-carbamoyl)phenyl]-8-[(2-methylpropyl)amino]imidazo[1,2-a]pyrazin-6-yl}-N-methylbenzamide]
7.1 | CC(C)CNc1nc(C(C)C)cn2c(-c3ccc(C(=O)NC4CC4)cc3)cnc12 [Example 11-2, N-cyclopropyl-4-{8-[(2-methylpropyl)amino]-6-(propan-2-yl)imidazo[1,2-a]pyrazin-3-yl} benzamide]
1.1 | Cc1cc(-c2cnc3c(NCCC(F)(F)F)nc(-c4ccc(F)c(CO)c4)cn23)ccc1C(=O)NC1CC1 [Example 1-124, N-cyclopropyl-4-{6-[4-fluoro-3-(hydroxymethyl)phenyl]-8-[(3,3,3-tri-fluoropropyl)amino]imidazo[1,2-a]pyrazin-3-yl}-2-methylbenzamide]

From patent US20140187548A1, “6 SUBSTITUTED IMIDAZOPYRAZINES FOR USE AS MPS-1 AND TKK INHIBITORS IN THE TREATMENT OF HYPERPROLIFERATIVE DISORDERS” (BAYER INTELLECTUAL PROPERTY GMBH, priority 2010, published 2014)
